What was measured:
HeLa [1] = assay: Hoechst 33342 nuclear staining, HeLa; assay type: cell-based, human; details: 48 h
Procedure: (§1) This assay is performed in 96 well tissue culture plates. Appropriate number of cells (adherent cells: 3-5*10^3, suspension cells: 8-10*10^3) are being seeded out in 80 μl complete medium. Adherent cells are incubated for 24 h for proper spreading out before addition of test compounds while suspension cells are immediately treated with test compounds after seeding out. The test compounds are added in 20 μl complete medium containing max 5% DMSO. The final compound concentrations in the assays are 10 μM, 3 μM, 1 μM and 0.3 μM, respectively. […] The assay plates are then further incubated for 30 minutes and subsequently analyzed with a standard inverted fluorescence microscope.
(§2) The readout allows the determination of the fraction of apoptotic nuclei as well as other morphological criteria specific for apoptosis as a function of the treatment. The following scores are used: 0 relating to no activity, 1 relating to weak activity comprising less than 50% of the cells and score 2 relating to strong activity comprising more than 50% of the cells.

Jurkat [2] = assay: Hoechst 33342 nuclear staining, Jurkat; assay type: cell-based, human; details: 48 h
Procedure: as §1, §2

HeLa [3] = assay: MTS proliferation assay, HeLa; assay type: cell-based, human; details: 72 h incubation
Procedure: (§3) The assay is performed in 96 well tissue culture plates. The cells (range: 1.5*10^3-10^4) are seeded out in 80 μl complete medium 24 h prior to compound treatment. The test compounds are added in 20 μl complete medium containing max 5% DMSO. The final compound concentrations in the assays are 10 μM, 3 μM, 1 μM and 0.3 μM, respectively. The assay plates are incubated for 72 h at culture conditions. The MTS reagent is prepared according to the manufacturer's protocol (Promega G1111). 20 μl MTS reagent are added to each well, the assay plates are quickly spun and incubated for another 3 h at culture conditions. Subsequently, the plates are shortly shaked and absorption measured with a microplate-reader at 492 nm.

Jurkat [4] = assay: MTS proliferation assay, Jurkat; assay type: cell-based, human; details: 72 h incubation
Procedure: as §3

Jily = assay: Hoechst 33342 nuclear staining, Jily; assay type: cell-based; details: 48 h
Procedure: as §1, §2

PBLs = assay: Hoechst 33342 nuclear staining, PBLs; assay type: cell-based; design: key: 0 = no activity, 1 = weak (<50% of cells), 2 = strong (>50% of cells); details: 48 h
Procedure: as §1, §2

H460 = assay: Hoechst 33342 nuclear staining, H460; assay type: cell-based, human; details: H460, 48 h
Procedure: as §1, §2

MRC5 = assay: Hoechst 33342 nuclear staining, MRC5; assay type: cell-based; design: key: 0 = no activity, 1 = weak (<50% of cells), 2 = strong (>50% of cells); details: MRC5, 48 h
Procedure: as §1, §2

SMILES | Hoechst 33342 nuclear staining score (HeLa [1]; conc. 0.3 (μM)) | Hoechst 33342 nuclear staining score (HeLa [1]; conc. 1 (μM)) | Hoechst 33342 nuclear staining score (HeLa [1]; conc. 3 (μM)) | Hoechst 33342 nuclear staining score (HeLa [1]; conc. 10 (μM)) | Hoechst 33342 nuclear staining score (Jurkat [2]; conc. 0.3 (μM)) | Hoechst 33342 nuclear staining score (Jurkat [2]; conc. 1 (μM)) | Hoechst 33342 nuclear staining score (Jurkat [2]; conc. 3 (μM)) | Hoechst 33342 nuclear staining score (Jurkat [2]; conc. 10 (μM)) | Hoechst 33342 nuclear staining score (Jily; conc. 0.3 (μM)) | Hoechst 33342 nuclear staining score (Jily; conc. 1 (μM)) | Hoechst 33342 nuclear staining score (Jily; conc. 3 (μM)) | Hoechst 33342 nuclear staining score (Jily; conc. 10 (μM)) | Hoechst 33342 nuclear staining score (PBLs; conc. 0.3 (μM)) | Hoechst 33342 nuclear staining score (PBLs; conc. 1 (μM)) | Hoechst 33342 nuclear staining score (PBLs; conc. 3 (μM)) | Hoechst 33342 nuclear staining score (PBLs; conc. 10 (μM)) | Hoechst 33342 nuclear staining score (H460; conc. 0.3 (μM)) | Hoechst 33342 nuclear staining score (H460; conc. 1 (μM)) | Hoechst 33342 nuclear staining score (H460; conc. 3 (μM)) | Hoechst 33342 nuclear staining score (H460; conc. 10 (μM)) | also measured
COc1cccc(/C=C/C(=O)Cn2c(-n3ncnc3N)nc3ccccc32)c1 [Example 9] | 0 | 0 | 0 | 2 (score 2 relating to strong activity comprising more than 50% of the cells) | 0 | 0 | 0 | 2 (score 2 relating to strong activity comprising more than 50% of the cells) | 0 | 0 | 0 | 2 (score 2 relating to strong activity comprising more than 50% of the cells) | 0 | 0 | 0 | 2 (score 2 relating to strong activity comprising more than 50% of the cells) | 0 | 0 | 0 | 2 (score 2 relating to strong activity comprising more than 50% of the cells) | IC50 (HeLa [3]): > 1 µM; IC50 (Jurkat [4]): > 1 µM; Hoechst 33342 nuclear staining score (MRC5; conc. 0.3 (μM)): 0; Hoechst 33342 nuclear staining score (MRC5; conc. 1 (μM)): 0; Hoechst 33342 nuclear staining score (MRC5; conc. 3 (μM)): 0; Hoechst 33342 nuclear staining score (MRC5; conc. 10 (μM)): 0
Cc1ccc(C(=O)Cn2c(-n3ncnc3N)nc3ccccc32)cc1C [Example 1, 3-Amino-2-(1-[3,4-dimethylphenylcarbonylmethyl]benzimidazol-2-yl)-1,2,4-triazole] | 2 (score 2 relating to strong activity comprising more than 50% of the cells) | 2 (score 2 relating to strong activity comprising more than 50% of the cells) | 2 (score 2 relating to strong activity comprising more than 50% of the cells) | 2 (score 2 relating to strong activity comprising more than 50% of the cells) | 2 (score 2 relating to strong activity comprising more than 50% of the cells) | 2 (score 2 relating to strong activity comprising more than 50% of the cells) | 2 (score 2 relating to strong activity comprising more than 50% of the cells) | 2 (score 2 relating to strong activity comprising more than 50% of the cells) | 2 (score 2 relating to strong activity comprising more than 50% of the cells) | 2 (score 2 relating to strong activity comprising more than 50% of the cells) | 2 (score 2 relating to strong activity comprising more than 50% of the cells) | 2 (score 2 relating to strong activity comprising more than 50% of the cells) | 0 | 0 | 0 | 0 | 2 (score 2 relating to strong activity comprising more than 50% of the cells) | 2 (score 2 relating to strong activity comprising more than 50% of the cells) | 2 (score 2 relating to strong activity comprising more than 50% of the cells) | 2 (score 2 relating to strong activity comprising more than 50% of the cells) | IC50 (HeLa [3]; Homo sapiens): < 0.1 µM; IC50 (Jurkat [4]; Homo sapiens): < 0.1 µM; Hoechst 33342 nuclear staining score (MRC5; conc. 0.3 (μM)): 1 (1 relating to weak activity comprising less than 50% of the cells); Hoechst 33342 nuclear staining score (MRC5; conc. 1 (μM)): 2 (score 2 relating to strong activity comprising more than 50% of the cells); Hoechst 33342 nuclear staining score (MRC5; conc. 3 (μM)): 2 (score 2 relating to strong activity comprising more than 50% of the cells); Hoechst 33342 nuclear staining score (MRC5; conc. 10 (μM)): 2 (score 2 relating to strong activity comprising more than 50% of the cells)
Nc1ccc(C(=O)Cn2c(-n3ncnc3N)nc3ccccc32)cn1 [Example 14] | 2 (score 2 relating to strong activity comprising more than 50% of the cells) | 2 (score 2 relating to strong activity comprising more than 50% of the cells) | 2 (score 2 relating to strong activity comprising more than 50% of the cells) | 2 (score 2 relating to strong activity comprising more than 50% of the cells) | 2 (score 2 relating to strong activity comprising more than 50% of the cells) | 2 (score 2 relating to strong activity comprising more than 50% of the cells) | 2 (score 2 relating to strong activity comprising more than 50% of the cells) | 2 (score 2 relating to strong activity comprising more than 50% of the cells) | 2 (score 2 relating to strong activity comprising more than 50% of the cells) | 2 (score 2 relating to strong activity comprising more than 50% of the cells) | 2 (score 2 relating to strong activity comprising more than 50% of the cells) | 2 (score 2 relating to strong activity comprising more than 50% of the cells) | 0 | 0 | 0 | 0 | 2 (score 2 relating to strong activity comprising more than 50% of the cells) | 2 (score 2 relating to strong activity comprising more than 50% of the cells) | 2 (score 2 relating to strong activity comprising more than 50% of the cells) | 2 (score 2 relating to strong activity comprising more than 50% of the cells) | IC50 (HeLa [3]): 0.1 to 1 µM; IC50 (Jurkat [4]): < 0.1 µM; Hoechst 33342 nuclear staining score (MRC5; conc. 0.3 (μM)): 1 (1 relating to weak activity comprising less than 50% of the cells); Hoechst 33342 nuclear staining score (MRC5; conc. 1 (μM)): 1 (1 relating to weak activity comprising less than 50% of the cells); Hoechst 33342 nuclear staining score (MRC5; conc. 3 (μM)): 1 (1 relating to weak activity comprising less than 50% of the cells); Hoechst 33342 nuclear staining score (MRC5; conc. 10 (μM)): 1 (1 relating to weak activity comprising less than 50% of the cells)

Reference: patent publication US7423157B2, “Substituted benzimidazoles and their use for inducing apoptosis” (Basilea Pharmaceutica AG, priority 2004, dated 2008)
